In article PMC3179844 (Chemmedchem, 2011):
Marks after values point to notes of the source that are not given here.

Tests used:
[1] = target: human 11β-HSD1 (Homo sapiens, UniProt P28845); assay: Cellular 11β-HSD1 inhibition assay; settings: for inhibition at 1 µM: HEK293, read-out: Percent inhibition measured at 1 μM
[2] = Metabolism studies in human liver microsomes; assay type: in vitro ADME; settings: for half-life: human liver microsomes, 37 °C, NADPH, 40 min, mean of two measurements
[3] = target: mouse 11β-HSD1 (Mus musculus, UniProt P50172); assay: Cellular 11β-HSD1 inhibition, mouse enzyme; assay type: cell-based; settings: mean of three measurements
[4] = ratio of IC50 values, human 11β-HSD1

Sequence of mouse 11β-HSD1 (P50172 whole entry): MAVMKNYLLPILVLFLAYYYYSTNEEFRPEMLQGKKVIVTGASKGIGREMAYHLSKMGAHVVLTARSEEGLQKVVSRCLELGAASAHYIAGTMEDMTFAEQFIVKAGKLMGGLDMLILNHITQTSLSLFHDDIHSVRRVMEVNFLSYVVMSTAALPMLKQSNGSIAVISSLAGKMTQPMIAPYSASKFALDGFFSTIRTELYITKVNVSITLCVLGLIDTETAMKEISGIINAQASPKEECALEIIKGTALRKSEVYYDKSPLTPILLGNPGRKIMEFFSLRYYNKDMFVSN
Sequence of human 11β-HSD1 (P28845 whole entry): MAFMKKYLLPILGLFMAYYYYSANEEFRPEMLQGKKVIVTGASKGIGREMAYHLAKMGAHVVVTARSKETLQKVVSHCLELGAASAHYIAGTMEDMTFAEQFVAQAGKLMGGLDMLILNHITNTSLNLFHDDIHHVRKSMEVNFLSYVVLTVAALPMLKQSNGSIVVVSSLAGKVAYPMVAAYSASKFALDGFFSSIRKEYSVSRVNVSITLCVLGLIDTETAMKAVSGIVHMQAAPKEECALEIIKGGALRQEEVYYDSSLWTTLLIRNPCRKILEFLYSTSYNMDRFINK

Molecule	melting point	also measured
CN(C)C(=O)c1ccc(SCC(=O)C23CC4CC(CC(C4)C2)C3)nc1 [Compound 27, 6-{[2-(Adamantan-1-yl)-2-oxoethyl]sulfanyl}-N,N-dimethylpyridine-3-carboxamide]	63 to 65 °C	
6-{[2-(Adamantan-1-yl)-2-oxoethyl]sulfanyl}-N-methylpyridine-3-carboxamide [Compound 25]		Percent inhibition measured at 1 μM ([1]; 1 μM, HEK293/HSD11B1 cells, mean of two measurements): 73 % ^[b]
Cc1ccc(OCC(=O)C23CC4CC(CC(C4)C2)C3)cn1 [Compound 11, 1-(Adamantan-1-yl)-2-[(6-methylpyridin-3-yl)oxy]ethan-1-one]	86 to 87 °C	fold improvement in activity compared with the 2-pyridyl analogue 6 [1, 4]: 38 fold
O=C(Cc1ccccn1)NCC(=O)C12CC3CC(CC(C3)C1)C2 [Compound 60, N-[2-(Adamantan-1-yl)-2-oxoethyl]-2-(pyridin-2-yl)acetamide]	137 to 139 °C	
ON=C(COCc1ccccn1)C12CC3CC(CC(C3)C1)C2 [Compound 35, N-[1-(Adamantan-1-yl)-2-(pyridin-2-ylmethoxy)ethylidene]hydroxylamine]		inhibition at 1 μM (in words) ([1]; 1 μM, HEK293/HSD11B1 cells): none of the oxime compound shows any significant inhibition
O=C(CSCc1cccnc1)C12CC3CC(CC(C3)C1)C2 [Compound 38, 1-(Adamantan-1-yl)-2-[(pyridin-3-ylmethyl)sulfanyl]ethan-1-one]	45 to 47 °C	
CCNC(=O)c1ccc(SCC(=O)C23CC4CC(CC(C4)C2)C3)nc1 [Compound 26, 6-{[2-(Adamantan-1-yl)-2-oxoethyl]sulfanyl}-N-ethylpyridine-3-carboxamide]	136 to 137 °C	
Cc1cccc(C(=O)NCC(=O)C23CC4CC(CC(C4)C2)C3)n1 [Compound 57, N-[2-(Adamantan-1-yl)-2-oxoethyl]-6-methylpyridine-2-carboxamide]	110 to 111 °C	
O=C(COc1cccc(Cl)n1)C12CC3CC(CC(C3)C1)C2 [Compound 7, 1-(Adamantan-1-yl)-2-[(6-chloropyridin-2-yl)oxy]ethan-1-one]	90 to 93 °C	
O=C(CSCc1ccc(Cl)nc1)C12CC3CC(CC(C3)C1)C2 [Compound 49, 1-(Adamantan-1-yl)-2-{[(6-chloropyridin-3-yl)methyl]sulfanyl}ethan-1-one]	88 to 90 °C	inhibition at 1 µM [1]: 31%
NC(=O)c1ccc(SCC(=O)C23CC4CC(CC(C4)C2)C3)nc1 [Compound 24, 6-{[2-(Adamantan-1-yl)-2-oxoethyl]sulfanyl}pyridine-3-carboxamide]	172 to 174 °C	
O=C(C[S+]([O-])c1ccccn1)C12CC3CC(CC(C3)C1)C2 (stereo not drawn) [Compound 16, 1-(Adamantan-1-yl)-2-(pyridine-2-sulfinyl)ethan-1-one]	66 to 68 °C	half-life [2]: 20 min; microsomal CLint ([2]; human, liver microsomes): 31 µL/min/mg; half-life ([2]; human, liver microsomes, Half-life): 20 to 30 min; IC50 [3]: 43 nM
Cc1cccc([S+]([O-])CC(=O)C23CC4CC(CC(C4)C2)C3)n1 (stereo not drawn) [Compound 17, 1-(Adamantan-1-yl)-2-(6-methylpyridine-2-sulfinyl)ethan-1-one]	75 to 76 °C	IC50 [3]: 68 nM
O=C(O)c1ccc(SCC(=O)C23CC4CC(CC(C4)C2)C3)nc1 [Compound 23, 6-{[2-(Adamantan-1-yl)-2-oxoethyl]sulfanyl}pyridine-3-carboxylic acid]	174 to 176 °C	
O=C(NCC(=O)C12CC3CC(CC(C3)C1)C2)c1cccnc1 [Compound 58, N-[2-(Adamantan-1-yl)-2-oxoethyl]pyridine-3-carboxamide]	114 to 115 °C	
O=C(COCc1ccc(C(F)(F)F)nc1)C12CC3CC(CC(C3)C1)C2 [Compound 34, 1-(Adamantan-1-yl)-2-{[6-(trifluoromethyl)pyridin-3-yl]methoxy}ethan-1-one]	106 to 109 °C	inhibition at 1 µM [1]: 33%
Cc1cccc(SCC(=O)C23CC4CC(CC(C4)C2)C3)n1 [Compound 14, 1-(Adamantan-1-yl)-2-[(6-methylpyridin-2-yl)sulfanyl]ethan-1-one]	116 to 117 °C	inhibition at 1 µM [1]: 70%
O=C(CSc1ccncc1)C12CC3CC(CC(C3)C1)C2 [Compound 15, 1-(Adamantan-1-yl)-2-(pyridin-4-ylsulfanyl)ethan-1-one]	114 to 115 °C	
O=C(CSc1ccc(C(F)(F)F)cn1)C12CC3CC(CC(C3)C1)C2 [Compound 22, 1-(Adamantan-1-yl)-2-{[5-(trifluoromethyl)pyridin-2-yl]sulfanyl}ethan-1-one]	141 to 142 °C	fold reduction in activity compared with the unsubstituted derivative 13 [1, 4]: 51 fold
O=C(COc1cncc(Cl)c1)C12CC3CC(CC(C3)C1)C2 [Compound 9, 1-(Adamantan-1-yl)-2-[(5-chloropyridin-3-yl)oxy]ethan-1-one]	127 to 128 °C	

Further lines, with some results ahead:

melting point	Molecule	also measured
38 to 39 °C	O=C(CSCc1ccccn1)C12CC3CC(CC(C3)C1)C2 [Compound 37, 1-(Adamantan-1-yl)-2-[(pyridin-2-ylmethyl)sulfanyl]ethan-1-one]	
102 to 104 °C	O=C(COc1ccc(C(F)(F)F)cn1)C12CC3CC(CC(C3)C1)C2 [Compound 8, 1-(Adamantan-1-yl)-2-{[5-(trifluoromethyl)pyridin-2-yl]oxy}ethan-1-one]	
125 to 128 °C	O=C(COc1cccnc1Cl)C12CC3CC(CC(C3)C1)C2 [Compound 10, 1-(Adamantan-1-yl)-2-[(2-chloropyridin-3-yl)oxy]ethan-1-one]	
151 to 152 °C	Cc1cccc(S(=O)(=O)CC(=O)C23CC4CC(CC(C4)C2)C3)n1 [Compound 20, 1-(Adamantan-1-yl)-2-(6-methylpyridine-2-sulfonyl)ethan-1-one]	
115 to 117 °C	ON=C(COCc1cccnc1)C12CC3CC(CC(C3)C1)C2 [Compound 36, N-[1-(Adamantan-1-yl)-2-(pyridin-3-ylmethoxy)ethylidene]hydroxylamine]	inhibition at 1 μM (in words) ([1]; 1 μM, HEK293/HSD11B1 cells): none of the oxime compound shows any significant inhibition
85 to 87 °C	Cc1cccc(OCC(=O)C23CC4CC(CC(C4)C2)C3)n1 [Compound 6, 1-(Adamantan-1-yl)-2-[(6-methylpyridin-2-yl)oxy]ethan-1-one]	IC50 ([1]; IC50, human 11β-HSD1, HEK293/HSD11B1 cells): 3100 nM
80 to 82 °C	O=C(CSCc1ccc(C(F)(F)F)nc1)C12CC3CC(CC(C3)C1)C2 [Compound 48, 1-(Adamantan-1-yl)-2-({[6-(trifluoromethyl)pyridin-3-yl]methyl}sulfanyl)ethan-1-one]	inhibition at 1 µM [1]: 20%
147 to 149 °C	O=C(NCC(=O)C12CC3CC(CC(C3)C1)C2)c1ccncc1 [Compound 59, N-[2-(Adamantan-1-yl)-2-oxoethyl]pyridine-4-carboxamide]	
135 to 136 °C	O=C(NCC(=O)C12CC3CC(CC(C3)C1)C2)c1ccccn1 [Compound 56, N-[2-(Adamantan-1-yl)-2-oxoethyl]pyridine-2-carboxamide]	
87 to 89 °C	O=C(CS(=O)(=O)Cc1ccc(C(F)(F)F)nc1)C12CC3CC(CC(C3)C1)C2 [Compound 52, 1-(Adamantan-1-yl)-2-({[6-(trifluoromethyl)pyridin-3-yl]methyl}sulfonyl)ethan-1-one]	inhibition at 1 µM [1]: 54%
87 to 88 °C	O=C(C[S+]([O-])Cc1ccccn1)C12CC3CC(CC(C3)C1)C2 (stereo not drawn) [Compound 40, 1-(Adamantan-1-yl)-2-[(pyridin-2-ylmethyl)sulfinyl]ethan-1-one]	IC50 [3]: 248 nM
73 to 75 °C	O=C(COc1cccnc1)C12CC3CC(CC(C3)C1)C2 [Compound 12, 1-(Adamantan-1-yl)-2-(pyridin-3-yloxy)ethan-1-one]	IC50 [3]: 160 nM
143 to 144 °C	O=C(CS(=O)(=O)c1ccncc1)C12CC3CC(CC(C3)C1)C2 [Compound 21, 1-(Adamantan-1-yl)-2-(pyridine-4-sulfonyl)ethan-1-one]	
115 to 117 °C	O=C(Cc1cccnc1)NCC(=O)C12CC3CC(CC(C3)C1)C2 [Compound 61, N-[2-(Adamantan-1-yl)-2-oxoethyl]-2-(pyridin-3-yl)acetamide]	
129 to 131 °C	O=C(CS(=O)(=O)c1ccccn1)C12CC3CC(CC(C3)C1)C2 [Compound 19, 1-(Adamantan-1-yl)-2-(pyridine-2-sulfonyl)ethan-1-one]	
